Values quoted from earlier work as cited in patent US20040018954A1, “Composition of menthol and menthyl lactate, its preparation method and its applications as a cooling agent” (priority 2002, published 2004).

Conditions: manufacturer's product literature

## CC1CCC(C(C)C)C(OC(=O)C(C)O)C1 (centres unmarked) [Frescolat ML, menthyl lactate]
  solubility: oil soluble
  stable in the pH range: 4-8
